# Measurements published in ChEMBL document CHEMBL5230166, “Novel quinoline-piperazine hybrids: the design, synthesis and evaluation of antibacterial and antituberculosis properties” (RSC Med Chem, 2023).
# System: Mycobacterium tuberculosis
# Experiment: Antibacterial activity multi-drug resistant Mycobacterium tuberculosis H37Rv ATCC 35822 assessed as inhibition of bacterial growth incubated for 2 days by CLSI protocol based broth microdilution method
# Assay type: functional
# Conditions: H37Rv ATCC 35822, 48 h, time 2 day
row,SMILES,MIC [µg/mL]
1,COc1ccc2nc(CN3CCN(S(=O)(=O)c4cccc5ccccc45)CC3)cc(OC)c2c1,> 64
2,COc1ccc2nc(CN3CCN(C(=O)C4CCC4)CC3)cc(OC)c2c1,> 64
3,CNS(=O)(=O)N1CCN(Cc2cc(OC)c3cc(OC)ccc3n2)CC1,> 64
4,COc1cc(CN2CCN(C(=O)c3ccccc3F)CC2)nc2ccc(F)cc12,> 64
5,COc1ccc2nc(CN3CCN(C(=O)c4ccc(Cl)c(Cl)c4)CC3)cc(OC)c2c1,> 64
6,COc1cc(CN2CCN(S(=O)(=O)c3ccc(C)cc3)CC2)nc2ccc(F)cc12,> 64
7,COc1ccc2nc(CN3CCN(C(=O)c4ccc(Cl)cc4Cl)CC3)cc(OC)c2c1,> 64
8,COc1ccc(C(=O)N2CCN(Cc3cc(OC)c4cc(F)ccc4n3)CC2)cc1,> 64
9,COc1ccc2nc(CN3CCN(S(=O)(=O)c4cccs4)CC3)cc(OC)c2c1,> 64
10,COc1ccc2nc(CN3CCN(S(=O)(=O)c4ccccc4C(F)(F)F)CC3)cc(OC)c2c1,> 64
11,CO[C@H]1/C=C/O[C@@]2(C)Oc3c(C)c(O)c4c(O)c(c(/C=N/N5CCN(C)CC5)c(O)c4c3C2=O)NC(=O)/C(C)=C\C=C\[C@H](C)[C@H](O)[C@@H](C)[C@@H](O)[C@@H](C)[C@H](OC(C)=O)[C@@H]1C [RIFAMPIN],> 64
12,COc1ccc2nc(CN3CCN(S(=O)(=O)c4c(C)cc(C)cc4C)CC3)cc(OC)c2c1,> 64
13,COc1ccc2nc(CN3CCN(C(=O)c4ccccc4OC)CC3)cc(OC)c2c1,> 64
14,COc1ccc2nc(CN3CCN(S(=O)(=O)c4c(F)c(F)c(F)c(F)c4F)CC3)cc(OC)c2c1,> 64
15,COc1cc(CN2CCN(C(=O)c3cccc(Cl)c3)CC2)nc2ccc(F)cc12,> 64
16,COc1ccc2nc(CN3CCN(C(=O)c4ccccc4F)CC3)cc(OC)c2c1,> 64
17,COc1cc(CN2CCN(S(=O)(=O)c3ccc(NC(C)=O)cc3)CC2)nc2ccc(F)cc12,> 64
18,COc1ccc2nc(CN3CCN(C(=O)c4c(Cl)cccc4Cl)CC3)cc(OC)c2c1,> 64
19,COc1cc(CN2CCN(S(=O)(=O)c3ccccc3F)CC2)nc2ccc(F)cc12,4
20,C[C@H]1COc2c(N3CCN(C)CC3)c(F)cc3c(=O)c(C(=O)O)cn1c23.C[C@H]1COc2c(N3CCN(C)CC3)c(F)cc3c(=O)c(C(=O)O)cn1c23.O [LEVOFLOXACIN],4
21,COc1cc(CN2CCN(C(=O)c3cccc(F)c3)CC2)nc2ccc(F)cc12,> 64
22,COc1cccc(C(=O)N2CCN(Cc3cc(OC)c4cc(OC)ccc4n3)CC2)c1,> 64
23,COc1cc(CN2CCN(S(=O)(=O)c3ccc(Cl)cc3Cl)CC2)nc2ccc(F)cc12,> 64
24,COc1ccc2nc(CN3CCN(S(=O)(=O)c4ccc(F)cc4)CC3)cc(OC)c2c1,> 64
25,COc1cc(CN2CCN(C(=O)c3ccccc3C)CC2)nc2ccc(F)cc12,> 64
26,COc1ccc2nc(CN3CCN(S(=O)(=O)c4ccccc4F)CC3)cc(OC)c2c1,0.5
27,COc1ccc(S(=O)(=O)N2CCN(Cc3cc(OC)c4cc(F)ccc4n3)CC2)cc1,> 64
28,COc1ccc2nc(CN3CCN(S(=O)(=O)c4ccc(NC(C)=O)cc4)CC3)cc(OC)c2c1,> 64
